Laboratory results: patent publication US12428406B2 (PMV Pharmaceuticals, Inc., priority 2019, dated 2025)

Biological target: T1, p53 Y220C (Homo sapiens, UniProt P04637, Y220C)
T1 construct: The recombinant protein was a truncation mutant containing only amino acids 94-312 of p53; made in house; host or cells: E. coli
Test: In vitro DNA binding activity assay (HTRF / TR-FRET): stabilization of p53 Y220C and increase of its DNA binding activity
Type: biochemical
Settings: recombinant His-tagged p53 Y220C DNA binding domain (aa 94-312), biotin-labeled consensus DNA, incubated at 27° C. or 29° C. for 60 min
In short: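 Compound effect on DNA binding of recombinant His-p53 Y220C (E. coli) to biotin-labeled consensus DNA, expressed as SC150, the concentration giving 50% increase versus untreated. Serial 3-fold DMSO dilutions of 4.5 mM stocks; room-temperature steps of 15 then 20 min.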

T1 sequence (P04637 94-312, change not shown): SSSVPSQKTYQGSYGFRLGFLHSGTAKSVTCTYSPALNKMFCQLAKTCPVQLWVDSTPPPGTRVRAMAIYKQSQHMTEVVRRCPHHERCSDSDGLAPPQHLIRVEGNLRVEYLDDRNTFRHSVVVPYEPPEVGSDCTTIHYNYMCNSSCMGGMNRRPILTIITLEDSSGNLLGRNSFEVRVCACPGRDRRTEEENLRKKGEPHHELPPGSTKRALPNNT

Question: `CNC(=O)c1cc(OC)c(NCC#Cc2cc3c(NC4CCN(CC(O)COC)CC4)cccc3n2CC(F)(F)F)cc1F` (stereo not shown) [Compound 690A, 2-fluoro-4-{[3-(4-{[1-(2-hydroxy-3-methoxypropyl)piperidin-4-yl]amino}-1-(2,2,2-trifluoroethyl)-1H-indol-2-yl)prop-2-yn-1-yl]amino}-5-methoxy-N-methylbenzamide] was tested. Which “SC150 (concentration of the compound required to increase the DNA binding activity by 50%)” value did it give?
Answer: Its value is “+ (+ = 0 μM ≤ SC150 < 0.05 μM)”.

Question: Which “SC150 (concentration of the compound required to increase the DNA binding activity by 50%)” value does the source give for `COCC(O)CN1CCC(Nc2cccc3c2cc(C#CCNc2ccc(S(=O)(=O)c4ccccc4)cc2OC)n3CC(F)(F)F)CC1` (stereo not shown) [Compound 691A, 1-(4-{[2-(3-{[4-(benzenesulfonyl)-2-methoxyphenyl]amino}prop-1-yn-1-yl)-1-(2,2,2-trifluoroethyl)-1H-indol-4-yl]amino}piperidin-1-yl)-3-methoxypropan-2-ol] here?
Answer: The value was “+ (+ = 0 μM ≤ SC150 < 0.05 μM)”.

Question: `COc1cc(S(C)(=O)=O)ccc1NCC#Cc1cc2c(NC3CCN(CC(C)(C)OC)CC3)cccc2n1CC(F)(F)F` [Compound 692A, 2-{3-[(4-methanesulfonyl-2-methoxyphenyl)amino]prop-1-yn-1-yl}-N-[1-(2-methoxy-2-methylpropyl)piperidin-4-yl]-1-(2,2,2-trifluoroethyl)-1H-indol-4-amine] was tested. Which “SC150 (concentration of the compound required to increase the DNA binding activity by 50%)” value did it give?
Answer: The value was “+ (+ = 0 μM ≤ SC150 < 0.05 μM)”.

Question: `COCC(O)CN1CCC(Nc2cccc3c2cc(C#CCNc2ccc(S(=O)(=O)C(C)C)cc2OC)n3CC(F)(F)F)CC1` (stereo not shown) [Compound 694A, 1-methoxy-3-(4-{[2-(3-{[2-methoxy-4-(propane-2-sulfonyl)phenyl]amino}prop-1-yn-1-yl)-1-(2,2,2-trifluoroethyl)-1H-indol-4-yl]amino}piperidin-1-yl)propan-2-ol] was tested. Which “SC150 (concentration of the compound required to increase the DNA binding activity by 50%)” value did it give?
Answer: Its value is “+ (+ = 0 μM ≤ SC150 < 0.05 μM)”.

Question: With `COCC(O)CN1CCCC(Nc2cccc3c2cc(C#CCNc2ccc(S(C)(=O)=O)cc2OC)n3CC(F)(F)F)C1` (stereo not shown) [Compound 695A, 1-{3-[(2-{3-[(4-methanesulfonyl-2-methoxyphenyl)amino]prop-1-yn-1-yl}-1-(2,2,2-trifluoroethyl)-1H-indol-4-yl)amino]piperidin-1-yl}-3-methoxypropan-2-ol] as the compound, how does the “SC150 (concentration of the compound required to increase the DNA binding activity by 50%)” value read?
Answer: Its value is “+ (+ = 0 μM ≤ SC150 < 0.05 μM)”.

Question: With `CCCn1c(C#CCNc2ccc(S(C)(=O)=O)cc2OC)cc2c(NC3CCN(CC(O)COC)CC3)cccc21` (stereo not shown) [Compound 697A, 1-{4-[(2-{3-[(4-methanesulfonyl-2-methoxyphenyl)amino]prop-1-yn-1-yl}-1-propyl-1H-indol-4-yl)amino]piperidin-1-yl}-3-methoxypropan-2-ol] as the compound, how does the “SC150 (concentration of the compound required to increase the DNA binding activity by 50%)” value read?
Answer: The value was “+ (+ = 0 μM ≤ SC150 < 0.05 μM)”.

Question: `COCC(O)CN1CCC(Nc2cccc3c2cc(C#CCNc2ccc(S(C)(=O)=O)cc2OC)n3CCF)CC1` (stereo not shown) [Compound 698A, 1-(4-{[1-(2-fluoroethyl)-2-{3-[(4-methanesulfonyl-2-methoxyphenyl)amino]prop-1-yn-1-yl}-1H-indol-4-yl]amino}piperidin-1-yl)-3-methoxypropan-2-ol] was tested. Which “SC150 (concentration of the compound required to increase the DNA binding activity by 50%)” value did it give?
Answer: Its value is “+ (+ = 0 μM ≤ SC150 < 0.05 μM)”.

Question: Which “SC150 (concentration of the compound required to increase the DNA binding activity by 50%)” value does the source give for `COCC(O)CN1CCC(Nc2cccc3c2cc(C#CCNc2ccc(S(C)(=O)=O)cc2OC)n3CC#N)CC1` (stereo not shown) [Compound 699A, 2-(4-{[1-(2-hydroxy-3-methoxypropyl)piperidin-4-yl]amino}-2-{3-[(4-methanesulfonyl-2-methoxyphenyl)amino]prop-1-yn-1-yl}-1H-indol-1-yl)acetonitrile] here?
Answer: Its value is “+ (+ = 0 μM ≤ SC150 < 0.05 μM)”.

Question: `COCC(O)CN1CCC(Nc2cccc3c2cc(C#CCNc2ccc(S(C)(=O)=O)cc2OC)n3CCCl)CC1` (stereo not shown) [Compound 700A, 1-(4-{[1-(2-chloroethyl)-2-{3-[(4-methanesulfonyl-2-methoxyphenyl)amino]prop-1-yn-1-yl}-1H-indol-4-yl]amino}piperidin-1-yl)-3-methoxypropan-2-ol] was tested. Which “SC150 (concentration of the compound required to increase the DNA binding activity by 50%)” value did it give?
Answer: Its value is “+ (+ = 0 μM ≤ SC150 < 0.05 μM)”.

Question: For `COCC(O)CN1CCC(Nc2cccc3c2cc(C#CCNc2ccc(S(C)(=O)=O)cc2C)n3CC(F)(F)F)CC1` (stereo not shown) [Compound 703A, 1-{4-[(2-{3-[(4-methanesulfonyl-2-methylphenyl)amino]prop-1-yn-1-yl}-1-(2,2,2-trifluoroethyl)-1H-indol-4-yl)amino]piperidin-1-yl}-3-methoxypropan-2-ol], which “SC150 (concentration of the compound required to increase the DNA binding activity by 50%)” value is on record?
Answer: The value was “+ (+ = 0 μM ≤ SC150 < 0.05 μM)”.

Question: With `COCC(O)CN1CCC(Nc2cccc3c2cc(C#CCNc2ccc(S(C)(=O)=O)cc2OC)n3CC2CC2(F)F)CC1` (stereo not shown) [Compound 704A, 1-[4-({1-[(2,2-difluorocyclopropyl)methyl]-2-{3-[(4-methanesulfonyl-2-methoxyphenyl)amino]prop-1-yn-1-yl}-1H-indol-4-yl}amino)piperidin-1-yl]-3-methoxypropan-2-ol] as the compound, how does the “SC150 (concentration of the compound required to increase the DNA binding activity by 50%)” value read?
Answer: The value was “++ (++ = 0.05 μM ≤ SC150 < 0.1 μM)”.

Question: How did the “SC150 (concentration of the compound required to increase the DNA binding activity by 50%)” value turn out when `COCC(O)CN1CCC(Nc2cccc3c2cc(C#CCNc2ccc(C(=O)O)cc2OC)n3CC(F)(F)F)CC1` (stereo not shown) [Compound 705A, 4-{[3-(4-{[1-(2-hydroxy-3-methoxypropyl)piperidin-4-yl]amino}-1-(2,2,2-trifluoroethyl)-1H-indol-2-yl)prop-2-yn-1-yl]amino}-3-methoxybenzoic acid] was run?
Answer: Its value is “+ (+ = 0 μM ≤ SC150 < 0.05 μM)”.

Question: `COc1cc(S(C)(=O)=O)ccc1NCC#Cc1cc2c(NC3CCN(CCCS(C)(=O)=O)CC3)cccc2n1CC(F)(F)F` [Compound 706A, 2-{3-[(4-methanesulfonyl-2-methoxyphenyl)amino]prop-1-yn-1-yl}-N-[1-(3-methanesulfonylpropyl)piperidin-4-yl]-1-(2,2,2-trifluoroethyl)-1H-indol-4-amine] was tested. Which “SC150 (concentration of the compound required to increase the DNA binding activity by 50%)” value did it give?
Answer: The value was “+ (+ = 0 μM ≤ SC150 < 0.05 μM)”.

Question: Which “SC150 (concentration of the compound required to increase the DNA binding activity by 50%)” value does the source give for `COc1cc(C(=O)O)ccc1NCC#Cc1cc2c(NC3CCN(CCCS(C)(=O)=O)CC3)cccc2n1CC(F)(F)F` [Compound 707A, 4-{[3-(4-{[1-(3-methanesulfonylpropyl)piperidin-4-yl]amino}-1-(2,2,2-trifluoroethyl)-1H-indol-2-yl)prop-2-yn-1-yl]amino}-3-methoxybenzoic acid] here?
Answer: The value was “+ (+ = 0 μM ≤ SC150 < 0.05 μM)”.

Question: How did the “SC150 (concentration of the compound required to increase the DNA binding activity by 50%)” value turn out when `COCC(O)CN1CCC(Nc2cccc3c2cc(C#CCNc2ccc(S(C)(=O)=O)cc2C(F)(F)F)n3CC(F)(F)F)CC1` (stereo not shown) [Compound 708A, 1-(4-{[2-(3-{[4-methanesulfonyl-2-(trifluoromethyl)phenyl]amino}prop-1-yn-1-yl)-1-(2,2,2-trifluoroethyl)-1H-indol-4-yl]amino}piperidin-1-yl)-3-methoxypropan-2-ol] was run?
Answer: Its value is “++ (++ = 0.05 μM ≤ SC150 < 0.1 μM)”.

Question: For `COCC(O)CN1CCC(Nc2cccc3c2cc(C#CCNc2ccc(S(C)(=O)=O)cc2OC)n3CC(F)F)CC1` (stereo not shown) [Compound 709A, 1-(4-{[1-(2,2-difluoroethyl)-2-{3-[(4-methanesulfonyl-2-methoxyphenyl)amino]prop-1-yn-1-yl}-1H-indol-4-yl]amino}piperidin-1-yl)-3-methoxypropan-2-ol], which “SC150 (concentration of the compound required to increase the DNA binding activity by 50%)” value is on record?
Answer: Its value is “+ (+ = 0 μM ≤ SC150 < 0.05 μM)”.

Question: For `COCC(O)CN1CCC(Nc2cccc3c2cc(C#CCNc2ccc(S(C)(=O)=O)cc2OC(F)(F)F)n3CC(F)(F)F)CC1` (stereo not shown) [Compound 710A, 1-(4-{[2-(3-{[4-methanesulfonyl-2-(trifluoromethoxy)phenyl]amino}prop-1-yn-1-yl)-1-(2,2,2-trifluoroethyl)-1H-indol-4-yl]amino}piperidin-1-yl)-3-methoxypropan-2-ol], which “SC150 (concentration of the compound required to increase the DNA binding activity by 50%)” value is on record?
Answer: Its value is “+ (+ = 0 μM ≤ SC150 < 0.05 μM)”.

Question: Which “SC150 (concentration of the compound required to increase the DNA binding activity by 50%)” value does the source give for `COCC(O)CN1CCC(Nc2cccc3c2cc(C#CCNc2ccc(S(C)(=O)=O)cc2OC)n3CCC(F)(F)F)CC1` (stereo not shown) [Compound 711A, 1-{4-[(2-{3-[(4-methanesulfonyl-2-methoxyphenyl)amino]prop-1-yn-1-yl}-1-(3,3,3-trifluoropropyl)-1H-indol-4-yl)amino]piperidin-1-yl}-3-methoxypropan-2-ol] here?
Answer: Its value is “++ (++ = 0.05 μM ≤ SC150 < 0.1 μM)”.

Question: With `COCC(O)CN1CCC(Nc2cccc3c2cc(C#CCNc2ccc(S(C)(=O)=O)cc2OC)n3CC(C)(F)F)CC1` (stereo not shown) [Compound 712A, 1-(4-{[1-(2,2-difluoropropyl)-2-{3-[(4-methanesulfonyl-2-methoxyphenyl)amino]prop-1-yn-1-yl}-1H-indol-4-yl]amino}piperidin-1-yl)-3-methoxypropan-2-ol] as the compound, how does the “SC150 (concentration of the compound required to increase the DNA binding activity by 50%)” value read?
Answer: Its value is “++ (++ = 0.05 μM ≤ SC150 < 0.1 μM)”.

Question: With `COCC(O)CN1CCC(Nc2cccc3c2cc(C#CCNc2ccc(S(C)(=O)=O)cc2Cl)n3CC(F)(F)F)CC1` (stereo not shown) [Compound 713A, 1-{4-[(2-{3-[(2-chloro-4-methanesulfonylphenyl)amino]prop-1-yn-1-yl}-1-(2,2,2-trifluoroethyl)-1H-indol-4-yl)amino]piperidin-1-yl}-3-methoxypropan-2-ol] as the compound, how does the “SC150 (concentration of the compound required to increase the DNA binding activity by 50%)” value read?
Answer: The value was “+ (+ = 0 μM ≤ SC150 < 0.05 μM)”.

Question: `COCC(O)CN1CCC(Nc2cccc3c2cc(C#CCNc2c(F)cc(S(C)(=O)=O)cc2OC)n3CC(F)(F)F)CC1` (stereo not shown) [Compound 714A] was tested. Which “SC150 (concentration of the compound required to increase the DNA binding activity by 50%)” value did it give?
Answer: The value was “++++ (++++ = 0.2 μM ≤ SC150 < 1 μM)”.

Question: How did the “SC150 (concentration of the compound required to increase the DNA binding activity by 50%)” value turn out when `CCC(=O)O[C@H](COC)CN1CCC(Nc2cccc3c2cc(C#CCNc2ccc(S(C)(=O)=O)cc2OC)n3CC(F)(F)F)CC1` [Compound 715A, (2S)-1-{4-[(2-{3-[(4-methanesulfonyl-2-methoxyphenyl)amino]prop-1-yn-1-yl}-1-(2,2,2-trifluoroethyl)-1H-indol-4-yl)amino]piperidin-1-yl}-3-methoxypropan-2-yl propanoate] was run?
Answer: Its value is “+ (+ = 0 μM ≤ SC150 < 0.05 μM)”.
